Where two headings read alike, the source gives them in different places.

Series [1] has as its target VEGF DNA binding to HuR (Homo sapiens, UniProt Q15717). As to the kind of experiment: Inhibition of VEGF DNA binding to HuR. To be noted: for Mean Max % I: mean of n1 and n2; for Max % I, n1: replicate n1; for Max % I, n2: replicate n2.
Series [2] deals with COX2 DNA binding to HuR (Homo sapiens, UniProt Q15717). As to the kind of experiment: Inhibition of COX2 DNA binding to HuR. Particulars: for Mean Max % I: mean of n1 and n2; for Max % I, n1: replicate n1; for Max % I, n2: replicate n2.
COX2 DNA binding to HuR, sequence (Q15717 whole entry): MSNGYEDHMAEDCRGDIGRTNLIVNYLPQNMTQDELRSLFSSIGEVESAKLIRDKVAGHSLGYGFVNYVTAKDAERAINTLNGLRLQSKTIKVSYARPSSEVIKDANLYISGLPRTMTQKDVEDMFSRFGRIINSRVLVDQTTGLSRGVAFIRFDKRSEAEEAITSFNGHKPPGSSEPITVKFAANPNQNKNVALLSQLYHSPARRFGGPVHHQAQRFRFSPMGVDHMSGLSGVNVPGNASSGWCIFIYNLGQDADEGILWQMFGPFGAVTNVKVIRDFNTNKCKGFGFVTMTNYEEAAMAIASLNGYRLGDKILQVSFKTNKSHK
In series [3] the target is HuR binding to target mRNA VEGF (Homo sapiens, UniProt Q15717). The experiment in a line: Inhibition of HuR binding to target mRNA VEGF. Particulars: given as a range.
HuR binding to target mRNA VEGF, sequence (Q15717 whole entry): as above
Series [4] addresses HuR binding to target mRNA COX2 (Homo sapiens, UniProt Q15717). The experiment in a line: Inhibition of HuR binding to target mRNA COX2. Particulars: given as a range.
Series [5] relates to HS766T. The experiment in a line: 5 day viability assay (Pico Green), HS766T. Format: cell-based. To be noted: 120 h. The procedure: (§1) The efficacy of pyrvinium pamoate was determined in a panel of PDA cell lines.
Series [6] has as its system MIA-PaCa2. As to the kind of experiment: 5 day viability assay (Pico Green), MIA-PaCa2. It is filed as cell-based. Particulars: Homo sapiens, MIA PaCa-2, 120 h. The method, then: as §1
For series [7], the system named is Panc-1. The experiment in a line: 5 day viability assay (Pico Green), Panc-1. It is filed as cell-based. To be noted: Homo sapiens, 120 h. The method, then:
as §1

Series [8] deals with CFPAC. As to the kind of experiment: 5 day viability assay (Pico Green), CFPAC. Format: cell-based. To be noted: 120 h. The method, then: as §1
For series [9], the system named is PDX-X139. As to the kind of experiment: 5 day viability assay (Pico Green), PDX cell line. It is filed as cell-based. Particulars: 120 h. The source says:
(§2) KPC mice have both an activating KRAS mutation (KRAS is mutated in up to 90% of PDA) and a loss of P53 driven by a pancreas specific Cre promoter. The KTC organoid model is derived from a GEMM that has a driver KRAS mutation and greater than 2-fold overexpression of HuR, specifically in the pancreas.

Series [10] has as its system KTC Organoids. As to the kind of experiment: 5 day viability assay (Pico Green), KTC organoids. Format: cell-based. Particulars: Mus musculus, 120 h.
Source text: as §2

The subject of series [11] is MIA-PaCa2 cells. As to the kind of experiment: MIA-PaCa2 flank tumor growth in mice. Format: in vivo, nude mice. Particulars: for tumor growth: 1 mg/kg IP 3 times weekly vs vehicle, MIA-PaCa2 flank tumors started at 100 mm^3.
Source text: as §2

A short description of series [12]: Synergy with CDK4/6 inhibitors (FIGS. 13A-13F).
Series [13] in a line: In vivo models, pyrvinium pamoate and ademaciclib (FIGS. 14A-14C).
For series [14] the following is noted: oral tablets or suspensions; urine up to 96 hours after each dose; cited from earlier work.
Series [15] relates to cyclin Dl. The experiment in a line: Cyclin D1 knockdown (FIG. 12).
Series [16] deals with PDA. The experiment in a line: Tumor volume, PARP inhibitor with or without shHuR. Format: in vivo. The source says:
HuR (ELAVL1) is an RNA binding protein that, upon exposure to a variety of intrinsic cancer related stressors, binds to a network of pro-survival mRNAs leading to an increase in their stability and translation. […] HuR CRISPR knockout PDA cell lines have a xenograft lethal phenotype. […] HuR is also important for oxaliplatin resistance in PDA. Utilizing a tumor microarray (TMA) from resected patient samples of PDA, it was discovered that 79% (n=80) of patients were positive for cytoplasmic HuR, with little to no cytoplasmic localization detected in adjacent normal tissues. HuR is a driver of chemoresistance in PDA and thus a prime target for re-sensitizing PDA cells to current therapies. While several compounds have been investigated as HuR inhibitors, to date there are no clinically viable HuR inhibitors.

[17] abbreviates: mean of n1 and n2, read-out: Mean IC50.
Setting [18] is: replicate n1, read-out: IC50, n1.
Where [19] appears, read: replicate n2, read-out: IC50, n2.

HuR binding to target mRNA COX2, sequence (Q15717 whole entry): as above
VEGF DNA binding to HuR, sequence (Q15717 whole entry): as above

Turning to `Cc1occ2c1C(=O)c1c(O)ccc(O)c1C2` [MS444], the entries for the “Mean Max % I” value in series [1] and in series [2] were 99.8% and 100.0%, respectively. The 50% inhibitory concentration (IC50) in series [1] (setting [17]) was 16 nM; in [1] (setting [18]), 15 nM; in series [1] (setting [19]), 17 nM; in [2] (setting [17]), 33 nM; in series [2] (setting [18]), 33 nM; in series [2] (setting [19]) it was 32 nM. The “Max % I, n1” value in series [1] and in [2] was 100.0% each time. Further, the “Max % I, n2” value is reported as 99.5% in series [1] and 100.0% in series [2].
In the case of `O=C1[O][Pt]2([NH][C@@H]3CCCC[C@H]3[NH]2)[O]C1=O` [Oxaliplatin], the half-maximal inhibitory concentration (IC50) in [3] is greater than 20 µM; in series [4], greater than 20 µM; in [1] (setting [17]), greater than 20000 nM; in series [1] (setting [18]) it was greater than 20000 nM; in [1] (setting [19]), greater than 20000 nM; in series [2] (setting [17]), greater than 20000 nM. The 50% inhibitory concentration (IC50) in series [2] (setting [18]) and in [2] (setting [19]) was greater than 20000 nM in each case. Also, in series [2], the “Max % I, n1” value amounted to 100.0%. Also, the “Max % I, n2” value in series [2] came out at 100.0%.
On to `Cc1cc(/C=C/c2ccc3cc(N(C)C)ccc3[n+]2C)c(C)n1-c1ccccc1` [PP, pyrvinium pamoate], for which the IC50 in series [3] is 0.203 to 0.416 µM; in series [4] it was 0.207 to 0.453 µM; in series [1] (setting [17]), 149 nM; in series [1] (setting [18]) it was 187 nM; in series [1] (setting [19]), 118 nM; in series [2] (setting [17]) it was 198 nM. Moreover, the 50% inhibitory concentration (IC50) in series [2] (setting [18]) came to 340 nM; in series [2] (setting [19]), 115 nM; in series [5] it was 93 nM; in series [6], 40 nM; in [7], 92 nM; in series [8], 21 nM. Also, the values for the concentration for half-maximal inhibition (IC50) in series [9] and in series [10] were 9 nM and 93 nM, respectively. The “Mean Max % I” value in [1] was 86.8%; in [2] it was 89.3%. Besides, the “Max % I, n1” value in series [1] is reported as 87.2%; in series [2] it was 88.8%. In addition, the “Max % I, n2” value in series [1] worked out at 86.5%; in series [2], 89.8%. Further, the tumor growth result in series [11] was “reduced tumor growth”; in series [11] (listed as pyrvinium pamoate), “significant decrease”. In [11] (1 mg/kg IP 3 times weekly, MIA-PaCa2 tumor-bearing mice), the mouse weights entry is listed as “no changes”. Moreover, the “effect with CDK4/6 inhibitors” value in series [12] is reported as “synergistic effect”. In addition, the “efficacy in in vivo models” value in series [13] is “efficacious”. For the same compound, in series [14], the “urine levels of pyrvinium vs the 24 hr prior to administration” value was “not significantly different”. In addition, the “knockdown of cyclin Dl” value in series [15] is given as “causes a knockdown”.
As to `Nc1ccn([C@@H]2O[C@H](CO)[C@@H](O)C2(F)F)c(=O)n1` [Gemcitabine], the 50% inhibitory concentration (IC50) was greater than 20 µM in series [3]; greater than 20 µM in series [4]; greater than 20000 nM in series [1] (setting [17]); greater than 20000 nM in [1] (setting [18]); greater than 20000 nM in series [1] (setting [19]); greater than 20000 nM in series [2] (setting [17]). Further, the IC50 in series [2] (setting [18]) and in series [2] (setting [19]) was greater than 20000 nM in each case. Moreover, the “Max % I, n1” value in series [2] amounted to 100.0%. In [2], the “Max % I, n2” value is recorded as 100.0%.
Consider `COc1ccc(C(CC(=O)N2CCCC2)c2c(OC)cc(OC)c3c(-c4ccccc4)cc(=O)oc23)cc1` (stereo not drawn) [CMLD2], for which the “Mean Max % I” value in series [1] came to 78.7%; in series [2], 81.6%. Moreover, the IC50 in series [1] (setting [17]) was determined as 1290 nM; in series [1] (setting [18]), 1280 nM; in series [1] (setting [19]), 1300 nM; in series [2] (setting [17]), 674 nM; in series [2] (setting [18]) it was 593 nM; in [2] (setting [19]), 767 nM. For the same compound, the results for the “Max % I, n1” value in series [1] and in series [2] were 85.6% and 81.1%, respectively. The “Max % I, n2” value was 71.9% in series [1] and 82.1% in [2].
Take `O=C(c1cc(Cc2n[nH]c(=O)c3ccccc23)ccc1F)N1CCN(C(=O)C2CC2)CC1` [olaparib]: the entries for the “reduction in tumor volume” value in [16] (combined with shHuR (DOX-inducible)) and in series [16] (olaparib alone) were 9.3 fold and 5.6 fold, respectively.
As to Verteporfin, the “Mean Max % I” value in series [1] is recorded as 74.7%; in [2] it was 92.7%. Also, the IC50 stood at 144 nM in series [1] (setting [17]); 167 nM in series [1] (setting [18]); 124 nM in series [1] (setting [19]); 29 nM in [2] (setting [17]); 28 nM in series [2] (setting [18]); 30 nM in series [2] (setting [19]). Further, the “Max % I, n1” value in series [1] came out at 77.0%; in series [2] it was 92.9%. In addition, the “Max % I, n2” value was 72.4% in [1] and 92.4% in [2].
With `CC(=O)O[C@H]1C(=O)[C@@]2(C)[C@H]([C@H](OC(=O)c3ccccc3)[C@]3(O)C[C@H](OC(=O)[C@H](O)[C@@H](NC(=O)c4ccccc4)c4ccccc4)C(C)=C1C3(C)C)[C@]1(OC(C)=O)CO[C@@H]1C[C@@H]2O` [Paclitaxel], the results for the “Mean Max % I” value in series [1] and in series [2] were 78.3% and 83.8%, respectively. The 50% inhibitory concentration (IC50) worked out at 5410 nM in series [1] (setting [17]); 5050 nM in series [1] (setting [18]); 5790 nM in series [1] (setting [19]); 2950 nM in [2] (setting [17]); 2220 nM in series [2] (setting [18]); 3910 nM in series [2] (setting [19]). Also, the “Max % I, n2” value in series [1] was 74.9%; in [2], 84.1%.
Turning to `CCN1CCN(Cc2ccc(Nc3ncc(F)c(-c4cc(F)c5nc(C)n(C(C)C)c5c4)n3)nc2)CC1` [ademaciclib], the “efficacy in in vivo models” value in series [13] is reported as “efficacious”.
`Cc1cccc2c3c(ccc12)C1=C(C(=O)C3=O)[C@@H](C)CO1` [DHTS]: the “Mean Max % I” value in series [1] worked out at 92.9%; in series [2], 94.0%. For the same compound, the IC50 stood at 1500 nM in [1] (setting [17]); 1070 nM in [1] (setting [18]); 2120 nM in series [1] (setting [19]); 599 nM in [2] (setting [17]); 1080 nM in series [2] (setting [18]); 332 nM in [2] (setting [19]). In addition, the “Max % I, n1” value was determined as 86.5% in series [1] and 100.0% in series [2]. The “Max % I, n2” value in [1] is given as 99.2%; in series [2], 88.1%.
Regarding Dihydro-tashinone, the “Mean Max % I” value in series [1] and in [2] was 100.0% in each case. In addition, the IC50 in series [1] (setting [17]) is 7380 nM; in series [1] (setting [18]), 6100 nM; in series [1] (setting [19]) it was 8930 nM; in series [2] (setting [17]) it was 5470 nM; in series [2] (setting [18]), 4080 nM; in series [2] (setting [19]) it was 7340 nM. Further, the “Max % I, n1” value in series [1] and in series [2] was 100.0% each time. The “Max % I, n2” value in series [1] and in series [2] was 100.0% in each case.

Values taken from US12447147B2, “Methods of treating, ameliorating, and/or preventing cancer using pyrvinium compositions” (Thomas Jefferson University, priority 2019, dated 2025).
